Source: patent US12365696B2, “Small-molecule focal adhesion kinase (FAK) inhibitors” (DANA-FARBER CANCER INSTITUTE, INC., priority 2019, dated 2025)

Key:
MDA-MB-231 cells [1] = test: ultra-low adherent 3D-spheroid suspension cell viability (3D Cell Titer-Glo), 120 hours; assay type: cell-based; conditions: Homo sapiens
Method: For ultra-low adherent 3D-spheroid suspensions, MDA-MB-231 cells were plated in 384-well format in media containing 10% Matrigel® and allowed to form spheroids overnight. Cells were treated with indicated molecules from compound stock plates using a JANUS® Workstation pin tool for 120 hours. To measure cell viability, 3D Cell Titer-Glo® was added to wells for 15 minutes at room temperature and luminescence was measured on an EnVision™ 2104 Multilabel Plate Reader.

PTK2 (FAK) = PTK2 (FAK) (Homo sapiens (Human), UniProt Q05397); test: Z′-LYTE kinase assay (SelectScreen Biochemical Kinase Profiling), enzymatic IC50; conditions: for IC50: enzymatic, Z′-LYTE, read-out: FAK IC50
Sequence of PTK2 (FAK) (Q05397 whole entry): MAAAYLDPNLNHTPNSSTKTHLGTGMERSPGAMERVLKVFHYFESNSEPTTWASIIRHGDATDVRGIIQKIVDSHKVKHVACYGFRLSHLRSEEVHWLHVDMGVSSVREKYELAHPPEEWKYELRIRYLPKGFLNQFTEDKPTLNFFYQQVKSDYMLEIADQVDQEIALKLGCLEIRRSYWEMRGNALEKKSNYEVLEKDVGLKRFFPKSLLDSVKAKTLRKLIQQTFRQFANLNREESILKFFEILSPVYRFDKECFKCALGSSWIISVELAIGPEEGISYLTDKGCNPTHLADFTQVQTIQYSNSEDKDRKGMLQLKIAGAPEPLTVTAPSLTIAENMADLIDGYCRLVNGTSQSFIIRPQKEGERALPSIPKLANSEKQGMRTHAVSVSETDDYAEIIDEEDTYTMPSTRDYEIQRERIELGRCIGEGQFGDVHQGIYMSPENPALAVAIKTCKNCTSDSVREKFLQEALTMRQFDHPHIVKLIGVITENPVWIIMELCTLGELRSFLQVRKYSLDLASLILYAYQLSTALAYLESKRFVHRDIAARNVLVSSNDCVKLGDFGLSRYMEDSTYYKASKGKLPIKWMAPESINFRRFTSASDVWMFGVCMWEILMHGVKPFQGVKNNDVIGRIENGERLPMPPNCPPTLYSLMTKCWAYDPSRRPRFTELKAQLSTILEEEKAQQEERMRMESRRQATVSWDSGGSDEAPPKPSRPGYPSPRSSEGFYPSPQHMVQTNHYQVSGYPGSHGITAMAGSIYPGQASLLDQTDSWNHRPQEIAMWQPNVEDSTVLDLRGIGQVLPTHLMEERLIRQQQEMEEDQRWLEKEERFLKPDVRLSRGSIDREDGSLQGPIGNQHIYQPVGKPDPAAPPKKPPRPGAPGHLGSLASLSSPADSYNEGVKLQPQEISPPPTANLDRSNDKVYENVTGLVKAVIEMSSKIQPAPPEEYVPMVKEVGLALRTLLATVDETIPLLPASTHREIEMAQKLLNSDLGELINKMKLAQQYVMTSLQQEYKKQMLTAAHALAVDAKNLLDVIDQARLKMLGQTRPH
Method: Enzymatic IC50 data was obtained through ThermoFisher Scientific SelectScreen™ Biochemical Kinase Profiling Service, using a Z′-LYTE™ kinase-specific assay, as described below.
The test compounds were screened in 1% dimethyl sulfoxide (DMSO) (final) in the well. For 10 point titrations, 3-fold serial dilutions were conducted from the starting concentration.
All peptide/kinase mixtures were diluted to a 2× working concentration in the appropriate kinase buffer (see section kinase specific assay conditions for a complete description).
All ATP solutions were diluted to a 4× working concentration in kinase buffer (50 mM 4-(2-hydroxyethyl)-1-piperazineethanesulfonic acid (HEPES) pH 7.5, 0.01% BRIJ-35, 10 mM MgCl2, 1 mM ethylene glycol-bis(β-aminoethyl ether)-N,N,N′,N′-tetraacetic acid (EGTA)). ATP Km apparent was previously determined using a Z′-LYTE assay.
The development reagent was diluted in development buffer (see section kinase-specific assay conditions—direct and cascade for a complete description).
Using a bar-coded Corning, low volume NBS, black 384-well plate (Corning Cat. #4514), 100 nL of 100× test compound in 100% DMSO was added. […] The plate was then shaken for 30 seconds and held at room temperature for a 60 minute kinase reaction incubation period. At which point 5 μL of development reagent solution was added and the plate was shaken for 30 seconds. The plate was held again at room temperature for a 60 minute development reaction incubation period and then read on a fluorescence plate reader and analyzed.
The 2×PTK2 (FAK)/Tyr 07 mixture was prepared in 50 mM HEPES pH 7.5, 0.01% BRIJ-35, 10 mM MgCl2, 1 mM EGTA. […] After the 1 hour kinase reaction incubation period, 5 μL of a 1:16 dilution of development reagent B was added.
SelectScreen Kinase Profiling Service uses XLfit from ID Business Solutions (IDBS). The dose response curve was curve fit to model number 205 (sigmoidal dose-response model).

MDA-MB-231 cells [2] = test: 2D-adherent monolayer cell viability (Cell Titer-Glo), 120 hrs; assay type: cell-based; conditions: Homo sapiens
Method: For 2D-adherent monolayer experiments, MDA-MB-231 cells were plated in 384-well format and allowed to adhere overnight. Cells were treated with indicated molecules from compound stock plates using a JANUS® Workstation pin tool for 120 hrs. To measure cell viability, Cell Titer-Glo® was added to wells for 15 minutes at room temperature and luminescence was measured on an EnVision™ 2104 Multilabel Plate Reader.
Inventive compound treatment (0.00063-20 μM) led to antiproliferative effects in MDA-MB-231 cells cultured as 2D-adherent monolayers or as ultra-low adherent 3D-spheroid suspensions (Table 5).

Row | Structure (SMILES) | IC50 (MDA-MB-231 cells [1]) [nM] | IC50 (PTK2 (FAK)) [nM] | IC50 (MDA-MB-231 cells [2]) [nM] | loss in potency relative to 3 (PTK2 (FAK); FAK IC50) [fold]
1 | COc1cc2c(cc1Nc1ncc3c(n1)N(C)c1sc(C)nc1C(=O)N3C)CN(C)CC2 [Compound 22, 6-((6-methoxy-2-methyl-1,2,3,4-tetrahydroisoquinolin-7-yl)amino)-2,4,9-trimethyl-4,9-dihydro-10H-pyrimido[5,4-b]thiazolo[5,4-e][1,4]diazepin-10-one] | > 10000 | 37.8 | > 10000 | –
2 | CNC(=O)c1ccc(Nc2ncc3c(n2)N(C)c2sc(C)nc2C(=O)N3C)c(OC)c1 [Compound 21, 3-methoxy-N-methyl-4-((2,4,9-trimethyl-10-oxo-9,10-dihydro-4H-pyrimido[5,4-b]thiazolo[5,4-e][1,4]diazepin-6-yl)amino)benzamide] | > 10000 | 45.4 | > 10000 | –
3 | COc1cc(N2CCN(S(C)(=O)=O)CC2)ccc1Nc1ncc2c(n1)N(C)c1sc(C)nc1C(=O)N2C [Compound 198, 6-((2-methoxy-4-(4-(methylsulfonyl)piperazin-1-yl)phenyl)amino)-2,4,9-trimethyl-4,9-dihydro-10H-pyrimido[5,4-b]thiazolo[5,4-e][1,4]diazepin-10-one] | > 10000 | 46.9 | > 10000 | –
4 | COc1cc(C(=O)N2CCC(N3CCN(C)CC3)CC2)ccc1Nc1ncc2c(n1)N(C)c1sc(C)nc1C(=O)N2C [Compound 28, 6-((2-methoxy-4-(4-(4-methylpiperazin-1-yl)piperidine-1-carbonyl)phenyl)amino)-2,4,9-trimethyl-4,9-dihydro-10H-pyrimido[5,4-b]thiazolo[5,4-e][1,4]diazepin-10-one] | > 10000 | 77.7 | > 10000 | –
5 | CNC(=O)c1ccc(Nc2ncc3c(n2)N(C)c2sc(C)nc2C(=O)N3C)cc1 [Compound 197, N-methyl-4-((2,4,9-trimethyl-10-oxo-9,10-dihydro-4H-pyrimido[5,4-b]thiazolo[5,4-e][1,4]diazepin-6-yl)amino)benzamide] | 5900 | 173 | > 10000 | –
6 | COc1cc(C2CCN(C)CC2)ccc1Nc1ncc2c(n1)N(C)c1sc(C)nc1C(=O)N2C [Compound 19, 6-((2-methoxy-4-(1-methylpiperidin-4-yl)phenyl)amino)-2,4,9-trimethyl-4,9-dihydro-10H-pyrimido[5,4-b]thiazolo[5,4-e][1,4]diazepin-10-one] | 3700 | 51.9 | 8900 | –
7 | Cc1nc2c(s1)N(C)c1nc(Nc3ccc4c(c3)CCC(=O)N4)ncc1N(C)C2=O [Compound 23, 2,4,9-trimethyl-6-((2-oxo-1,2,3,4-tetrahydroquinolin-6-yl)amino)-4,9-dihydro-10H-pyrimido[5,4-b]thiazolo[5,4-e][1,4]diazepin-10-one] | > 10000 | 670 | > 10000 | –
8 | CCN1c2nc(Nc3ccc(N4CCC(N5CCN(C)CC5)CC4)cc3OC)ncc2N(C)C(=O)c2nc(C)sc21 [Compound 159, 4-ethyl-6-((2-methoxy-4-(4-(4-methylpiperazin-1-yl)piperidin-1-yl)phenyl)amino)-2,9-dimethyl-4,9-dihydro-10H-pyrimido[5,4-b]thiazolo[5,4-e][1,4]diazepin-10-one] | > 10000 | 22.9 | > 10000 | –
9 | CCOc1cc(N2CCN(C)CC2)ccc1Nc1ncc2c(n1)N(C)c1sc(C)nc1C(=O)N2C [Compound 16, 6-((2-ethoxy-4-(4-methylpiperazin-1-yl)phenyl)amino)-2,4,9-trimethyl-4,9-dihydro-10H-pyrimido[5,4-b]thiazolo[5,4-e][1,4]diazepin-10-one] | 6100 | 54.5 | > 10000 | –
10 | CCN1C(=O)c2nc(C)sc2N(C)c2nc(Nc3ccc(N4CCC(N5CCN(C)CC5)CC4)cc3OC)ncc21 [Compound 132, 9-ethyl-6-((2-methoxy-4-(4-(4-methylpiperazin-1-yl)piperidin-1-yl)phenyl)amino)-2,4-dimethyl-4,9-dihydro-10H-pyrimido[5,4-b]thiazolo[5,4-e][1,4]diazepin-10-one] | 930 | 18.8 | > 10000 | –
11 | COc1cc(N2CCN(C)CC2)ccc1Nc1ncc2c(n1)N(C)c1sc(C)nc1C(=O)N2C [Compound 14, 6-((2-methoxy-4-(4-methylpiperazin-1-yl)phenyl)amino)-2,4,9-trimethyl-4,9-dihydro-10H-pyrimido[5,4-b]thiazolo[5,4-e][1,4]diazepin-10-one] | 2300 | 30.3 | > 10000 | –
12 | COc1cc(N2CCN(CCN(C)C)CC2)ccc1Nc1ncc2c(n1)N(C)c1sc(C)nc1C(=O)N2C [Compound 200, 6-((4-(4-(2-(dimethylamino)ethyl)piperazin-1-yl)-2-methoxyphenyl)amino)-2,4,9-trimethyl-4,9-dihydro-10H-pyrimido[5,4-b]thiazolo[5,4-e][1,4]diazepin-10-one] | – | 67.2 | – | –
13 | COc1cc(N2CCN(CCO)CC2)ccc1Nc1ncc2c(n1)N(C)c1sc(C)nc1C(=O)N2C [Compound 20, 6-((4-(4-(2-hydroxyethyl)piperazin-1-yl)-2-methoxyphenyl)amino)-2,4,9-trimethyl-4,9-dihydro-10H-pyrimido[5,4-b]thiazolo[5,4-e][1,4]diazepin-10-one] | > 10000 | 73.9 | > 10000 | –
14 | COc1cc(N2CCC(N3CCN(C)CC3)CC2)ccc1Nc1ncc2c(n1)N(C)c1scnc1C(=O)N2 [Compound 6, 6-((2-methoxy-4-(4-(4-methylpiperazin-1-yl)piperidin-1-yl)phenyl)amino)-4-methyl-4,9-dihydro-10H-pyrimido[5,4-b]thiazolo[5,4-e][1,4]diazepin-10-one] | – | 510 | – | 8
15 | COc1cc(N2CCN(C)CC2)c(C)cc1Nc1ncc2c(n1)N(C)c1sc(C)nc1C(=O)N2C [Compound 18, 6-((2-methoxy-5-methyl-4-(4-methylpiperazin-1-yl)phenyl)amino)-2,4,9-trimethyl-4,9-dihydro-10H-pyrimido[5,4-b]thiazolo[5,4-e][1,4]diazepin-10-one] | 7700 | 31.5 | > 10000 | –
16 | COc1cc(N2CCNCC2)ccc1Nc1ncc2c(n1)N(C)c1sc(C)nc1C(=O)N2C [Compound 12, 6-((2-methoxy-4-(piperazin-1-yl)phenyl)amino)-2,4,9-trimethyl-4,9-dihydro-10H-pyrimido[5,4-b]thiazolo[5,4-e][1,4]diazepin-10-one] | 2500 | 43.5 | > 10000 | –
17 | COc1cc(N2CCN(C)CC2)ccc1Nc1ncc2c(n1)N(C)c1sc(C)nc1C(=O)N2 [Compound 7, 6-((2-methoxy-4-(4-methylpiperazin-1-yl)phenyl)amino)-2,4-dimethyl-4,9-dihydro-10H-pyrimido[5,4-b]thiazolo[5,4-e][1,4]diazepin-10-one] | – | 48.7 | – | –
